Assay results reported in ChEMBL document CHEMBL4840352 (J Med Chem, 2021).

Legend:
[1] = system: MOLM-13; assay: Antiproliferative activity against human MOLM-13 cells incubated for 48 hrs by CCK-8 assay; format: functional, cell-based; conditions: MOLM-13, 48 h
[2] = system: MV4-11; assay: Antiproliferative activity against human MV4-11 cells incubated for 48 hrs by CCK-8 assay; format: functional, cell-based; conditions: MV4-11, 48 h

| IC50 [1] | IC50 [2] | SMILES |
| --- | --- | --- |
| 93.7 nM | 424 nM | Nc1c(-c2nc3cc(N4CCN(C(=O)CCCC#Cc5cccc6c5C(=O)N(C5CCC(=O)NC5=O)C6=O)CC4)ccc3[nH]2)c(=O)[nH]c2cccc(F)c12 (stereo unspecified) |
| 185 nM | 415 nM | Cc1ncsc1-c1ccc(CNC(=O)[C@H]2C[C@H](O)CN2C(=O)[C@H](NC(=O)CCCCC(=O)N2CCN(c3ccc4[nH]c(-c5c(N)c6c(F)cccc6[nH]c5=O)nc4c3)CC2)C(C)(C)C)cc1 |
| 130 nM | 416 nM | Nc1c(-c2nc3cc(N4CCN(C(=O)CCCCCCNc5cccc6c5C(=O)N(C5CCC(=O)NC5=O)C6=O)CC4)ccc3[nH]2)c(=O)[nH]c2cccc(F)c12 (stereo unspecified) |
| > 1000 nM | > 1000 nM | Nc1c(-c2nc3cc(N4CCN(CCCCCCCC(=O)Nc5cccc6c5C(=O)N(C5CCC(=O)NC5=O)C6=O)CC4)ccc3[nH]2)c(=O)[nH]c2cccc(F)c12 (stereo unspecified) |
| > 1000 nM | > 1000 nM | Nc1c(-c2nc3cc(N4CCN(CCCCCCC(=O)Nc5cccc6c5CN(C5CCC(=O)NC5=O)C6=O)CC4)ccc3[nH]2)c(=O)[nH]c2cccc(F)c12 (stereo unspecified) |
| > 1000 nM | 929 nM | Nc1c(-c2nc3cc(N4CCN(C(=O)CCC#Cc5cccc6c5C(=O)N(C5CCC(=O)NC5=O)C6=O)CC4)ccc3[nH]2)c(=O)[nH]c2cccc(F)c12 (stereo unspecified) |
| > 1000 nM | 557 nM | Nc1c(-c2nc3cc(N4CCN(CCCCCC(=O)Nc5cccc6c5C(=O)N(C5CCC(=O)NC5=O)C6=O)CC4)ccc3[nH]2)c(=O)[nH]c2cccc(F)c12 (stereo unspecified) |
| 306 nM | 635 nM | Nc1c(-c2nc3cc(N4CCN(C(=O)CCCCC#Cc5cccc6c5C(=O)N(C5CCC(=O)NC5=O)C6=O)CC4)ccc3[nH]2)c(=O)[nH]c2cccc(F)c12 (stereo unspecified) |
